Results from patent publication US20210147482A1, “PEPTIDE FOR INHIBITING BONE RESORPTION” (NIBEC CO., LTD., priority 2017, published 2021).

Columns and labels:
[1] = system: mouse-bone-marrow-derived macrophages; test: Osteoclast differentiation by TRAP staining; format: cell-based; conditions: 100 ng/ml RANKL + 0.2, 2, or 20 μg/ml HBD3-C15, 3 days
Method: In order to evaluate the effect of HBD3-C15, a peptide fragment derived from human beta-defensin-3 (HBD3) on the differentiation of osteoclasts, which are bone destruction cells, mouse-bone-marrow-derived macrophages were used. The bone marrow-derived macrophages that were used were prepared by isolating bone marrow cells from the long bone of mice and culturing the same at 100% humidity and 37° C. in an alpha MEM containing 10% fetal bovine serum, 50 unit/ml of penicillin and 50 μg/ml of streptomycin along with 20 ng/ml of M-CSF for 5 days, while continuously feeding 5% carbon dioxide.
Mouse-bone-marrow-derived macrophages were seeded at 20,000 cells/well on a 96-well plate, treated with 100 ng/ml of receptor activator of nuclear factor-kappaB ligand (RANKL) alone, or a combination of 100 ng/ml of RANKL and 0.2, 2, or 20 μg/ml of HBD3-C15, and cultured for 3 days. In order to determine the degree of differentiation of osteoclasts, tartrate-resistant acid phosphatase (TRAP) staining was performed, and cells with three or more nuclei having osteoclast activity were counted and statistically analyzed.

[2] = system: osteoclasts cultured from mouse-bone-marrow-derived macrophages on dentin discs; test: Bone resorption activity of osteoclasts on dentin discs; format: cell-based; conditions: 20 ng/ml M-CSF, 100 ng/ml RANKL, 20 μg/ml HBD3-C15, 6 days, FIG. 2
Method: The osteoclasts were cultured in mouse-bone-marrow-derived macrophages on dentin discs based on the fact that osteoclasts perform all functions thereof in environments enabling bone absorption. Mouse-bone-marrow-derived macrophages were treated with 20 ng/ml of M-CSF and 100 ng/ml of RANKL, or with 20 ng/ml of M-CSF, 100 ng/ml of RANKL and 20 μg/ml of HBD3-C15, and then cultured for 6 days. The bone resorption area and bone resorption depth were imaged by confocal microscopy and total bone resorption depth and bone resorption area were measured by LSM Image Browser software.

[3] = system: NFATc1; test: NFATc1 RNA expression by RT-PCR; format: cell-based, mouse; conditions: 20 ng/ml M-CSF, 100 ng/ml RANKL, 20 μg/ml HBD3-C15, 24 hours; FIG. 1D
Method: (§1) In addition, expression of c-fos and NFATc1, which are well-known key transcription factors for osteoclast differentiation, was determined at protein and RNA levels.
(§2) Mouse-bone-marrow-derived macrophages were treated with 20 ng/ml of M-CSF and 100 ng/ml of RANKL, or 20 ng/ml of M-CSF, 100 ng/ml of RANKL and 20 μg/ml of HBD3-C15 for 24 hours, RNA was extracted, and the quantified RNA and random primers were reacted at 70° C. for 5 minutes and reacted in the presence of a reverse transcriptase, reverse transcription buffer and dNTPs at 42° C. for 1 hour. The result was amplified by 35 cycles using the synthesized cDNA as a template and using c-Fos and NFATc1-specific oligos as primers in a polymerase chain reaction machine.

[4] = system: c-Fos; test: c-Fos RNA expression by RT-PCR; format: cell-based, mouse; conditions: 20 ng/ml M-CSF, 100 ng/ml RANKL, 20 μg/ml HBD3-C15, 24 hours; FIG. 1D
Method: as §1, §2

[5] = system: c-Fos; test: c-Fos protein expression by immunoblotting; format: cell-based, mouse; conditions: treated with HBD3-C15 for 48 hours; FIG. 1D
Method: (§3) In addition, in order to determine changes of the protein expression of c-Fos and NFATc1, the proteins were extracted from mouse-bone-marrow-derived macrophages, treated with HBD3-C15 for 48 hours, and 40 μg of the protein was transferred to the PVDF membrane through an SDS-PAGE gel. Then, immunoblotting was performed using c-Fos and NFATc1-specific antibodies.

[6] = system: osteoblast cell line MC3T3-E1 (Subclone 4); test: Osteoblast differentiation by alkaline phosphate staining; format: cell-based; conditions: differentiation medium (50 μg/ml ascorbic acid, 10 mM β-glycerophosphate) + 20 μg/ml HBD3-C15, 6 days; FIG. 7
Method: In order to evaluate the effect of HBD3-C15 on differentiation of osteoblasts, which are bone formation cells, the osteoblast cell line MC3T3-E1 (Subclone 4) was used. The cells were prepared by culturing in alpha-MEM medium without ascorbic acid containing 10% fetal bovine serum, 50 unit/ml of penicillin, and 50 μg/ml of streptomycin at 37° C. and 100% humidity while continuously supplying 5% carbon dioxide.
MC3T3-E1 cells were seeded at a density of 25,000 cells/well into a 48-well plate, then treated with a differentiation medium alone supplemented with 50 μg/ml of ascorbic acid and 10 mM of β-glycerophosphate, or in combination with 20 μg/ml of HBD3-C15, and cultured for 6 days. Alkaline phosphate staining was performed to determine the differentiation of osteoblasts and images were obtained through a camera mounted on a microscope.

[7] = system: NFATc1; test: NFATc1 protein expression by immunoblotting; format: cell-based, mouse; conditions: treated with HBD3-C15 for 48 hours; FIG. 1D
Method: as §3

[8] = system: osteoclasts from mouse-derived bone marrow macrophages; test: Podosome belt formation in osteoclasts (confocal microscopy); format: cell-based; conditions: 20 ng/ml M-CSF, 100 ng/ml RANKL, 20 μg/ml HBD3-C15, 5 days; FIG. 3
Method: Thus, in order to determine whether or not the reduction of osteoclast differentiation by HBD3-C15 is affected by podosome belt formation in osteoclasts, mouse-derived bone marrow macrophages were differentiated on a cover glass. Mouse-bone-marrow-derived macrophages were treated with 20 ng/ml of M-CSF and 100 ng/ml of RANKL, or 20 ng/ml of M-CSF, 100 ng/ml of RANKL and 20 μg/ml of HBD3-C15, and cultured for 5 days. The cells were fixed with 4% paraformaldehyde, stained with Alexa-Fluor-488-conjugated-phalloidin, and washed and stained with Hoechst 33258. The degree of staining of cells was observed by confocal microscopy.

[9] = system: mouse skulls; test: Mouse skull resorption induced by A.a.LPS; format: in vivo; conditions: transplantation of HBD3-C15; FIG. 6
Method: In addition, lipopolysaccharide of Aggregatibacter actinomycetemcomitans (A.a.LPS), a bacterium known to cause aggressive periodontitis accompanied with rapid alveolar bone loss, induced resorption of mouse skulls, and whether such resorption can be inhibited by HBD3-C15 was determined

[10] = system: mature osteoclasts; test: Destruction of podosome belt of differentiated mature osteoclasts; format: cell-based, mouse; conditions: 20 μg/ml HBD3-C15 added on day 4 of differentiation, cultured 1 day; FIG. 4
Method: Thus, in order to determine whether or not HBD3-C15 can inhibit the activity of differentiated mature osteoclasts, mouse-bone-marrow-derived macrophages were treated with 20 ng/ml of M-CSF and 100 ng/ml of RANKL on a cover glass for 4 days to induce differentiation of osteoclasts. The osteoclasts were treated with 20 μg/ml of HBD3-C15 on day 4 of differentiation and cultured for 1 day. The cells were fixed with 4% paraformaldehyde, stained with Alexa-Fluor-488-conjugated phalloidin, washed and nuclei-stained with Hoechst 33258. The degree of staining of cells was observed by confocal microscopy.

[11] = system: mouse skulls; test: Calvarial implantation model, bone resorption by RANKL; format: in vivo; conditions: 20 μg RANKL and 200 μg HBD3-C15 in collagen sheet, day 7
Method: In order to determine the inhibition of bone destruction by HBD3-C15 in vivo, a calvarial implantation model, a typical bone loss model, was used.
20 μg of RANKL, a key cytokine that can destroy bones, was soaked in a collagen sheet and was transplanted alone into mouse skulls, or 20 μg of RANKL and 200 μg of HBD3-C15 were soaked in a collagen sheet and then transplanted into mouse skulls. The mice were sacrificed on day 7 of transplantation, and the degree of skull bone destruction was analyzed by scanning via micro-CT.
After micro-CT analysis, TRAP staining was performed to determine the number of osteoclasts in the skull.

## G-K-C-S-T-R-G-R-K-C-C-R-R-K-K [HBD3-C15]
[1]; FIG. 1A
  number of TRAP positive cells increased due to RANKL: decreased in a concentration-dependent manner
[1]; FIG. 1B
  number of cells with three or more nuclei having osteoclast activity: statistically significantly decreased
[1]; FIG. 1C
  number of cells having ten or more nuclei: significantly decreased
[2]
  increase in bone resorption area attributable to RANKL: significantly reduced
  increase in bone resorption depth attributable to RANKL: significantly reduced
[3]
  expression of NFATc1 (RNA) increased by RANKL: reduced
[4]
  expression of c-Fos (RNA) increased by RANKL: reduced
[5]
  c-Fos protein expression attributable to RANKL: inhibited an increase
[6]
  degree of differentiation of osteoblasts: no difference in the degree of differentiation
[7]
  NFATc1 protein expression attributable to RANKL: inhibited an increase
[8]
  podosome belt formation by RANKL: no clear podosome belt
[9]
  number of osteoclasts (A.a.LPS model): decreased
  skull resorption by A.a.LPS: significantly reduced
[10]
  podosome belt of differentiated mature osteoclasts: incomplete podosome belt
[11]; FIG. 5C
  number of osteoclasts in the skull (TRAP staining): significantly reduced
[11]; FIGS. 5A and 5B
  skull absorbed by RANKL (micro-CT): significantly reduced
